For data set [1], the system named is Mus musculus. To be noted: subchronic, duration: 13 weeks, oral, B6C3F1.
Data set [2] concerns Oryctolagus sp. To be noted: acute; dermal; occlusive.
The test system of data set [3] is Rattus norvegicus. Conditions: for LC50: acute, inhalation; for LOAEL / NOAEL: subchronic, oral.
In data set [4] the test system is Rattus norvegicus. To be noted: subchronic, duration: 13 weeks, oral, M/F, Fischer 344.
Data set [5] concerns Rattus norvegicus. Conditions: M/F.
Data set [6] has as its system Rattus norvegicus.
Data set [7] has as its system Rattus norvegicus. Conditions: for NOAEL: M/F.
The test system of data set [8] is Rattus norvegicus. To be noted: uterotrophic; duration: 2 days; injection; subcutaneous; Active.
Where [9] appears, read: duration: 13 weeks, drinking water, Fischer 344.
Where [10] appears, read: duration: 13 weeks, drinking water, Wistar.
Setting [11] is: duration: 89 days, gavage, Sprague-Dawley.
[12] abbreviates: subchronic, duration: 90 days, oral, gavage, increased liver weight.
Where [13] appears, read: chronic, duration: 2 years, oral, diet, lungs, liver, kidney, thyroid and thyroid hormones.
[14] abbreviates: reproduction developmental, inhalation, increased liver weight in p1 males.
Setting [15] is: chronic, oral, diet, Liver cytomegaly, fatty metamorphosis, angiectasis + thyroid cystic follicles.
Where [16] appears, read: subchronic, oral, gavage, liver toxicity.
Setting [17] is: chronic, duration: 2 years, oral, diet, reduced body weight.
The mark [18] stands for this setting: reproduction developmental, oral, reduced offspring body weight.

Where “and” joins values, the source holds several entries; their conditions need not be identical. Identical values can stand only once.

Experimental findings from EPA's ToxValDB 9.5 are described below.

Consider `c1ccncc1` [Pyridine], for which the LOAEL was determined as 26.5 mg/kg-day in data set [1] (drinking water); 25 mg/kg-day in data set [1] (gavage); 38 mg/kg-day in data set [3] (setting [9]); 38 mg/kg-day in data set [3] (setting [10]); 12.5 mg/kg-day in data set [3] (duration: 13 weeks, gavage, Fischer 344); 10 mg/kg-day in data set [3] (setting [11]). The same molecule showed an LOAEL in data set [5] (setting [12]) of 10 mg/kg-day. The NOAEL in data set [1] (drinking water) was 13.2 mg/kg-day; in data set [3] (setting [9]), 15.2 mg/kg-day; in data set [3] (setting [10]) it was 15.2 mg/kg-day; in data set [3] (setting [11]), 1 mg/kg-day; in data set [5] (setting [12]), 1 mg/kg-day; in data set [6] (subchronic, duration: 90 days, oral, gavage, Liver: Increased relative weight + Liver: Increased weight) it was 1 mg/kg-day. For the same molecule, the LD50 in data set [2] is ≥ 1000 mg/kg and ≤ 2000 mg/kg. Moreover, the LC50 in data set [3] was less than 12900 mg/m3; in data set [3] (Crl:CD(SD) BR) it was ≥ 15900 mg/m3 and ≤ 19400 mg/m3; in data set [3] (Sprague-Dawley), 29200 mg/m3 and 29100 mg/m3. Also, the NOEL in data set [4] (water, Deaths + Body Weight Changes: decrease + Food Consumption: decrease + Hematology: RBC decrease, Hct decrease, Hgb decrease, Plt increase + …) is less than 7.6 mg/kg-day.
Turning to `COC(=O)c1c(Cl)c(Cl)c(C(=O)OC)c(Cl)c1Cl` [Chlorthal-dimethyl], in data set [5] (setting [13]), the LOAEL was found to be 10 mg/kg-day and the NOAEL was determined as 1 mg/kg-day. Also, the NOAEL in data set [6] (chronic, duration: 2 years, oral, diet, Kidney: Effects + Liver: Effects + Lung: Effects + Thyroid hormones: Effects + Thyroid: Effects) was determined as 1 mg/kg-day.
For `Clc1ccc(Cl)cc1` [1,4-Dichlorobenzene], the NOEL in data set [4] (gavage, Deaths + Clinical Observation: Tremors Poor motor response Ocular discharge + Body Weight Changes: decrease + Urinalysis: Coproporphyrin …) was less than 300 mg/kg-day. In data set [5] (setting [14]), the LOAEL turned out to be 902 mg/m3 and the NOAEL is 301 mg/m3. For the same molecule, the NOAEL in data set [6] (chronic, inhalation, intermittent, Liver: Increased weight in male parents) is 75 mg/m3.
As to `ClC1(Cl)C2(Cl)C3(Cl)C4(Cl)C(Cl)(Cl)C5(Cl)C3(Cl)C1(Cl)C5(Cl)C24Cl` (centres undefined) [Mirex], the LOAEL in data set [5] (setting [15]) was determined as 0.7 mg/kg-day. The NOAEL in data set [5] (setting [15]) was 0.07 mg/kg-day; in data set [7] (chronic, duration: 2 years, oral, diet, Fischer 344, hepatic) it was 0.075 mg/kg-day; in data set [6] (chronic, duration: 2 years, oral, diet, Liver: Angiectasis + Liver: Cytomegaly + Liver: Fatty metamorphosis + Thyroid: Cystic follicles) it was 0.07 mg/kg-day. The LEL in data set [8] was determined as 1 mg/day.
Regarding `[Be]` [Beryllium], the NOAEL in data set [6] (chronic, oral, drinking water, None Observed) was found to be 0.54 mg/kg-day.
As for `O=C1C[C@@H]2OCC=C3CN4CC[C@]56c7ccccc7N1[C@H]5[C@H]2[C@H]3C[C@H]46` [Strychnine], the LOAEL in data set [5] (subchronic, oral, toxicity/histopathology) turned out to be 2.5 mg/kg-day; in data set [6] (short-term, duration: 28 days, oral, gavage, Unspecified: Histopathology + Unspecified: Toxicity) it was 2.5 mg/kg-day.
Molecule `CCNc1nc(NC(C)C)nc(SC)n1` [Ametryn] showed an LEL in data set [5] (setting [16]) of 100 mg/kg-day. Besides, the NOEL is 8.6 mg/kg-day and 10 mg/kg-day in data set [5] (setting [16]); 10 mg/kg-day in data set [6] (subchronic, duration: 13 weeks, oral, gavage, Liver: Effects).
In data set [5] (setting [17]), `CC(C)Nc1nc(Cl)nc(NC(C)C)n1` [2,4-Bis(isopropylamino)-6-chloro-1,3,5-triazine] registered an LEL of 50 mg/kg-day and an NOEL of 5 mg/kg-day. In addition, the NOEL in data set [6] (chronic, duration: 2 years, oral, diet, Whole body: Decreased weight gain) amounted to 5 mg/kg-day.
`CCOP(=S)(OCC)SCSCC` [Phorate] gave an NOAEL in data set [6] (subchronic, duration: 13 weeks, oral, diet, Cholinesterase: Inhibition) of 0.033 mg/kg-day.
Consider `CCOP(=S)(OCC)SCCSCC` [Disulfoton], for which, in data set [5] (chronic, duration: 2 years, oral, diet, cholinesterase inhibition, optic nerve degeneration), the LEL worked out at 0.04 mg/kg-day. Further, the LOAEL worked out at 0.06 mg/kg-day in data set [7] (chronic, duration: 2 years, oral, diet, F, Fischer 344, neurological) and 0.04 mg/kg-day in data set [6] (chronic, duration: 2 years, oral, diet, Blood: Cholinesterase inhibition + Eye: Degeneration). Moreover, the NOAEL in data set [7] (developmental, duration: 364 days, oral, diet, Sprague-Dawley, neurological, developmental) was 0.009 mg/kg-day; in data set [7] (short-term, duration: 3 weeks, inhalation, Wistar TNO/W 74 albino, neurological), 0.1 mg/m3; in data set [7] (short-term, duration: 3 weeks, inhalation, chamber, Wistar TNO/W 74 albino, neurological) it was 0.1 mg/m3.
In data set [5] (setting [18]), `O=C1CCCCCN1` [Caprolactam] displayed an LOAEL of 250 mg/kg-day and an NOAEL of 50 mg/kg-day. Besides, the NOAEL in data set [6] (subchronic, duration: 90 days, oral, diet, Kidney: Effects) amounted to 50 mg/kg-day.
